Source: PubChem BioAssay (NCI)
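GI50 = concentration required for 50% inhibition of growth. TGI marks complete inhibition of growth.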

Legend:
Assay in all cases: NCI anticancer screen, dose series, 384-well format; in the data active means GI50 below about 0.43 µM; inactive means the rest
HL-60(TB) leukemia = system: HL-60(TB) leukemia
MDA-MB-231 breast = system: MDA-MB-231 breast
HCT-15 colon = system: HCT-15 colon
KM12 colon = system: KM12 colon
SF-539 CNS = system: SF-539 CNS
T-47D breast = system: T-47D breast
UACC-62 melanoma = system: UACC-62 melanoma
CCRF-CEM leukemia = system: CCRF-CEM leukemia
HCT-116 colon = system: HCT-116 colon
ACHN renal = system: ACHN renal
NCI/ADR-RES ovarian = system: NCI/ADR-RES ovarian
NCI-H226 lung = system: NCI-H226 lung
SF-295 CNS = system: SF-295 CNS
NCI-H23 lung = system: NCI-H23 lung
MDA-MB-468 breast = system: MDA-MB-468 breast
LOX IMVI melanoma = system: LOX IMVI melanoma
SK-MEL-28 melanoma = system: SK-MEL-28 melanoma
UACC-257 melanoma = system: UACC-257 melanoma
MOLT-4 leukemia = system: MOLT-4 leukemia
HS 578T breast = system: HS 578T breast
DU-145 prostate = system: DU-145 prostate
SW-620 colon = system: SW-620 colon
OVCAR-3 ovarian = system: OVCAR-3 ovarian
COLO 205 colon = system: COLO 205 colon
SR leukemia = system: SR leukemia
OVCAR-4 ovarian = system: OVCAR-4 ovarian
OVCAR-8 ovarian = system: OVCAR-8 ovarian
MCF7 breast = system: MCF7 breast
UO-31 renal = system: UO-31 renal
M14 melanoma = system: M14 melanoma
SF-268 CNS = system: SF-268 CNS
786-0 renal = system: 786-0 renal
NCI-H522 lung = system: NCI-H522 lung
SNB-75 CNS = system: SNB-75 CNS
PC-3 prostate = system: PC-3 prostate
U251 glioblastoma = system: U251 glioblastoma
NCI-H322M lung = system: NCI-H322M lung
SNB-19 CNS = system: SNB-19 CNS
TK-10 renal = system: TK-10 renal
RXF 393 renal = system: RXF 393 renal
OVCAR-5 ovarian = system: OVCAR-5 ovarian
CAKI-1 renal = system: CAKI-1 renal
SN12C renal = system: SN12C renal
HOP-92 NSCLC = system: HOP-92 NSCLC
SK-MEL-5 melanoma = system: SK-MEL-5 melanoma
MALME-3M melanoma = system: MALME-3M melanoma
EKVX NSCLC = system: EKVX NSCLC
HT29 colon = system: HT29 colon
HCC-2998 colon = system: HCC-2998 colon
SK-OV-3 ovarian = system: SK-OV-3 ovarian
MDA-MB-435 melanoma = system: MDA-MB-435 melanoma
IGROV1 ovarian = system: IGROV1 ovarian
HOP-62 NSCLC = system: HOP-62 NSCLC
NCI-H460 NSCLC = system: NCI-H460 NSCLC
RPMI-8226 leukemia = system: RPMI-8226 leukemia
BT-549 breast = system: BT-549 breast
A498 renal = system: A498 renal
A549 NSCLC = system: A549 NSCLC

CNC(=O)c1ccc(N2C(=S)N(c3cnc(C#N)c(C(F)(F)F)c3)C(=O)C23CCC3)cc1F
100 µM: TGI (SR leukemia)
inactive: GI50 (HL-60(TB) leukemia) 55.6 µM | GI50 (MDA-MB-231 breast) > 100 µM | GI50 (HCT-15 colon) > 100 µM | GI50 (KM12 colon) > 100 µM | GI50 (SF-539 CNS) > 100 µM | GI50 (T-47D breast) > 72.4 µM | GI50 (UACC-62 melanoma) > 100 µM | GI50 (CCRF-CEM leukemia) > 100 µM | GI50 (HCT-116 colon) > 100 µM | GI50 (ACHN renal) > 100 µM | GI50 (NCI/ADR-RES ovarian) > 100 µM | GI50 (NCI-H226 lung) > 95.1 µM | GI50 (SF-295 CNS) > 100 µM | GI50 (NCI-H23 lung) > 100 µM | GI50 (MDA-MB-468 breast) 55.5 µM | GI50 (LOX IMVI melanoma) > 100 µM | GI50 (SK-MEL-28 melanoma) > 100 µM | GI50 (UACC-257 melanoma) > 100 µM | GI50 (MOLT-4 leukemia) 36.4 µM | GI50 (HS 578T breast) > 100 µM | GI50 (DU-145 prostate) > 100 µM | GI50 (SW-620 colon) > 100 µM | GI50 (OVCAR-3 ovarian) > 100 µM | GI50 (COLO 205 colon) > 100 µM | GI50 (SR leukemia) 29 µM | GI50 (OVCAR-4 ovarian) 90.4 µM | GI50 (OVCAR-8 ovarian) > 100 µM | GI50 (MCF7 breast) > 100 µM | GI50 (UO-31 renal) > 100 µM | GI50 (M14 melanoma) > 100 µM | GI50 (SF-268 CNS) > 100 µM | GI50 (786-0 renal) > 100 µM | GI50 (NCI-H522 lung) > 100 µM | GI50 (SNB-75 CNS) > 100 µM | GI50 (PC-3 prostate) > 100 µM | GI50 (U251 glioblastoma) > 100 µM | GI50 (NCI-H322M lung) > 100 µM | GI50 (SNB-19 CNS) > 100 µM | GI50 (TK-10 renal) > 100 µM | GI50 (RXF 393 renal) > 62.4 µM | GI50 (OVCAR-5 ovarian) > 100 µM | GI50 (CAKI-1 renal) > 100 µM | GI50 (SN12C renal) > 100 µM | GI50 (HOP-92 NSCLC) > 100 µM | GI50 (SK-MEL-5 melanoma) > 100 µM | GI50 (MALME-3M melanoma) > 100 µM | GI50 (EKVX NSCLC) > 100 µM | GI50 (HT29 colon) > 100 µM | GI50 (HCC-2998 colon) > 100 µM | GI50 (SK-OV-3 ovarian) > 100 µM | GI50 (MDA-MB-435 melanoma) > 100 µM | GI50 (IGROV1 ovarian) > 100 µM | GI50 (HOP-62 NSCLC) > 100 µM | GI50 (NCI-H460 NSCLC) > 100 µM | GI50 (RPMI-8226 leukemia) 69.1 µM | GI50 (BT-549 breast) > 100 µM | GI50 (A498 renal) > 100 µM | GI50 (A549 NSCLC) > 100 µM
> 100 µM: TGI (HL-60(TB) leukemia) | TGI (MDA-MB-231 breast) | TGI (HCT-15 colon) | TGI (KM12 colon) | TGI (SF-539 CNS) | TGI (T-47D breast) | TGI (UACC-62 melanoma) | TGI (CCRF-CEM leukemia) | TGI (HCT-116 colon) | TGI (ACHN renal) | TGI (NCI/ADR-RES ovarian) | TGI (NCI-H226 lung) | TGI (SF-295 CNS) | TGI (NCI-H23 lung) | TGI (MDA-MB-468 breast) | TGI (LOX IMVI melanoma) | TGI (SK-MEL-28 melanoma) | TGI (UACC-257 melanoma) | TGI (MOLT-4 leukemia) | TGI (HS 578T breast) | TGI (DU-145 prostate) | TGI (SW-620 colon) | TGI (OVCAR-3 ovarian) | TGI (COLO 205 colon) | TGI (OVCAR-4 ovarian) | TGI (OVCAR-8 ovarian) | TGI (MCF7 breast) | TGI (UO-31 renal) | TGI (M14 melanoma) | TGI (SF-268 CNS) | TGI (786-0 renal) | TGI (NCI-H522 lung) | TGI (SNB-75 CNS) | TGI (PC-3 prostate) | TGI (U251 glioblastoma) | TGI (NCI-H322M lung) | TGI (SNB-19 CNS) | TGI (TK-10 renal) | TGI (RXF 393 renal) | TGI (OVCAR-5 ovarian) | TGI (CAKI-1 renal) | TGI (SN12C renal) | TGI (HOP-92 NSCLC) | TGI (SK-MEL-5 melanoma) | TGI (MALME-3M melanoma) | TGI (EKVX NSCLC) | TGI (HT29 colon) | TGI (HCC-2998 colon) | TGI (SK-OV-3 ovarian) | TGI (MDA-MB-435 melanoma) | TGI (IGROV1 ovarian) | TGI (HOP-62 NSCLC) | TGI (NCI-H460 NSCLC) | TGI (RPMI-8226 leukemia) | TGI (BT-549 breast) | TGI (A498 renal) | TGI (A549 NSCLC)
